Assay results: the supplement of paper PMC10307832

Key:
Test in all cases: relative viability (nuclei count vs DMSO), 5 days (fraction); higher = more cells survive
Zosuquidar + Navitoclax = compound: O[C@@H](COc1cccc2ncccc12)CN1CCN([C@@H]2c3ccccc3[C@@H]3[C@H](c4ccccc42)C3(F)F)CC1 [Zosuquidar] + CC1(C)CCC(c2ccc(Cl)cc2)=C(CN2CCN(c3ccc(C(=O)NS(=O)(=O)c4ccc(N[C@H](CCN5CCOCC5)CSc5ccccc5)c(S(=O)(=O)C(F)(F)F)c4)cc3)CC2)C1 [Navitoclax] (partner 0.5 µM)
Method in brief: (§1)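 Each reported value is a median over duplicate plates. It expresses relative viability: treated-well nuclei count divided by vehicle-well nuclei count. Lung cancer cell lines in 1536-well plates were dosed by pin tool a day after seeding, alone with one drug or with a fixed anchor-drug dose plus five library-drug doses (not always all listed) in √10 steps, and nuclei were counted after 5 days.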

Kobe2602 + Palbociclib = compound: C1=CC(=CC=C1NC(=S)NNC2=C(C=C(C=C2[N+](=O)[O-])C(F)(F)F)[N+](=O)[O-])F [Kobe2602] + CC(=O)c1c(C)c2cnc(Nc3ccc(N4CCNCC4)cn3)nc2n(C2CCCC2)c1=O [Palbociclib] (partner 0.5 µM)
Method in brief: as §1

Zosuquidar + AZD7762 = compound: O[C@@H](COc1cccc2ncccc12)CN1CCN([C@@H]2c3ccccc3[C@@H]3[C@H](c4ccccc42)C3(F)F)CC1 [Zosuquidar] + NC(=O)Nc1cc(-c2cccc(F)c2)sc1C(=O)N[C@H]1CCCNC1 [AZD7762] (partner 0.2 µM)
Method in brief: as §1

[1] = compound: COc1cc2nccc(Oc3ccc(NC(=O)C4(C(=O)Nc5ccc(F)cc5)CC4)cc3)c2cc1OC [Cabozantinib] + Cc1cc(Nc2cc(N3CCN(C)CC3)nc(Sc3ccc(NC(=O)C4CC4)cc3)n2)n[nH]1 [Tozasertib] (partner 0.1 µM)
Method in brief: as §1

Cell Line	relative viability (Zosuquidar + Navitoclax; first compound 0.01 µM)	relative viability (Zosuquidar + Navitoclax; first compound 0.03162 µM)	relative viability (Zosuquidar + Navitoclax; first compound 0.1 µM)	relative viability (Zosuquidar + Navitoclax; first compound 0.3162 µM)	relative viability (Zosuquidar + Navitoclax; first compound 1 µM)	relative viability (Kobe2602 + Palbociclib; first compound 0.2 µM)	relative viability (Kobe2602 + Palbociclib; first compound 0.6325 µM)	relative viability (Kobe2602 + Palbociclib; first compound 2 µM)	relative viability (Kobe2602 + Palbociclib; first compound 6.325 µM)	relative viability (Kobe2602 + Palbociclib; first compound 20 µM)	relative viability (Zosuquidar + AZD7762; first compound 0.01 µM)	relative viability (Zosuquidar + AZD7762; first compound 0.03162 µM)	relative viability (Zosuquidar + AZD7762; first compound 0.1 µM)	relative viability (Zosuquidar + AZD7762; first compound 0.3162 µM)	relative viability (Zosuquidar + AZD7762; first compound 1 µM)	relative viability ([1]; first compound 0.02 µM)	relative viability ([1]; first compound 0.06325 µM)	relative viability ([1]; first compound 0.2 µM)	relative viability ([1]; first compound 0.6325 µM)	relative viability ([1]; first compound 2 µM)
201T	1.1	1.16	1.14	1.2	1.21	0.378	0.375	0.351	0.394	0.322	0.592	0.623	0.67	0.685	0.731	0.968	1.1	0.916	0.935	0.87
A549	1.16	0.892	1.16	1.23	1.24															
A-427	1.01	0.714	0.873	1.02	0.974	0.593	0.571	0.522	0.606	0.532	0.759	0.798	0.693	0.764	0.705	0.316	0.201	0.209	0.213	0.185
ABC-1						0.579	0.762	0.559	0.853	0.739	0.69	0.864	0.665	0.717	0.733	0.194	0.195	0.265	0.194	0.218
BEN	0.523	0.0629	0.0532	0.0672	0.0608	0.502	0.497	0.481	0.483	0.443	0.738	0.615	0.518	0.724	0.589	0.512	0.474	0.507	0.56	0.461
CAL-12T	1.38	1.35	1.17	1.45	1.2	0.515	0.6	0.411	0.408	0.407	0.586	0.626	0.469	0.632	0.738	0.366	0.446	0.369	0.261	0.247
COR-L23	0.999	1.14	1.11	1.02	1.02	0.31	0.296	0.275	0.318	0.333						0.235	0.212	0.194	0.145	0.137
COR-L 105	0.944	0.638	0.725	0.968	0.631	0.423	0.413	0.422	0.438	0.383						0.397	0.457		0.361	0.342
Calu-6	0.88	0.81	0.895	0.86	0.813															
ChaGo-K-1	1.14	0.971	1.28	1.09	0.964	0.977	0.926	0.83	0.894	0.83	0.807	0.799	0.896	0.818	0.93	0.263	0.203	0.234	0.23	0.201
EBC-1	0.451	0.417	0.466	0.493	0.417															
EKVX	0.93	0.938	0.842	1.03	0.899	0.456	0.386	0.375	0.408	0.379	0.747	0.77		0.752	0.659	0.422	0.481	0.364	0.394	0.314
EMC-BAC-2	1.19	0.795	1.05	1.18	1.12	0.522	0.543	0.494	0.566	0.525	1.1	1.15	1.11	1.26	0.979	0.292	0.335	0.334	0.284	0.295
EPLC-272H	1.08	1.28	1.1	1.07	0.984	0.337	0.357	0.352	0.321	0.359	0.233	0.154	0.29	0.32	0.222	0.357	0.338	0.204	0.295	0.352
H3255	0.513	0.492	0.537	0.608	0.436	0.336	0.337	0.333	0.273	0.303	1.03	0.832	0.766	0.95	0.795	0.605	1.34		0.471	0.775
HARA	1.1	1.15	1.1	1.1	1.14	0.331	0.227	0.237	0.268	0.366	0.429	0.343	0.304	0.344	0.322	0.132	0.113	0.116	0.129	0.107
HCC-15	0.723	0.702	0.683	0.665	0.667	0.698	0.72	0.662	0.547	0.618	1.11	1.27	1.17	1.18	1.16	0.462	0.432	0.437	0.44	0.267
HCC-44	0.959	1.02	1.04	1.02	1.17	0.988	0.932	0.975	0.924	0.887	1.02	1.11	1.02	1.01	1		1.27	0.979	1	0.758
HCC-78	1.04	0.768		0.839	0.736	0.522	0.446	0.479	0.535	0.52	0.685			0.72	0.524		0.414	0.445	0.367	0.311
